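Dose response: 5 concentrations. Exposure: 48 h. Format: 96-well plates. Endpoint: linear interpolation; highest concentration if not reached. Abbreviation: GI50, concentration required for 50% inhibition of growth.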 The source made the active and inactive calls. Rule as the data show it: active = GI50 up to about 1.1 µM and inactive = higher.
Experiments:
Assay in all cases: NCI tumour cell line growth inhibition, 48 h
SNB-19 = system: SNB-19
M14 = system: M14
OVCAR-4 = system: OVCAR-4
SK-OV-3 = system: SK-OV-3
PC-3 = system: PC-3
T47D = system: T47D
SK-MEL-2 = system: SK-MEL-2
MCF7 = system: MCF7
K562 = system: K562
UO-31 = system: UO-31
Hs-578T = system: Hs-578T
786-0 = system: 786-0
SNB-75 = system: SNB-75
SF-268 = system: SF-268
ACHN = system: ACHN
RPMI-8226 = system: RPMI-8226
HOP-92 = system: HOP-92
RXF 393 = system: RXF 393
EKVX = system: EKVX
BT-549 = system: BT-549

Row | Compound | GI50 (SNB-19) | GI50 (M14) | GI50 (OVCAR-4) | GI50 (SK-OV-3) | GI50 (PC-3) | GI50 (T47D) | GI50 (SK-MEL-2) | GI50 (MCF7) | GI50 (K562) | GI50 (UO-31) | GI50 (Hs-578T) | GI50 (786-0) | GI50 (SNB-75) | GI50 (SF-268) | GI50 (ACHN) | GI50 (RPMI-8226) | GI50 (HOP-92) | GI50 (RXF 393) | GI50 (EKVX) | GI50 (BT-549)
1 | CC(O)/C=C/C1OC(=O)CC1Nc1ccc(C=O)cc1 (stereo not drawn) | > 100 µM (inactive) | 22.3 µM (inactive) | > 100 µM (inactive) | > 100 µM (inactive) | > 100 µM (inactive) | 60.7 µM (inactive) | 23.3 µM (inactive) | 55.2 µM (inactive) | 41.5 µM (inactive) | 51.2 µM (inactive) | > 100 µM (inactive) | > 100 µM (inactive) | > 100 µM (inactive) | > 100 µM (inactive) | > 100 µM (inactive) | 24.2 µM (inactive) | 15.3 µM (inactive) | > 100 µM (inactive) | > 100 µM (inactive) | > 100 µM (inactive)
2 | Cc1ccc(S(=O)(=O)c2ccc([N+](=O)[O-])o2)cc1 | 20.1 µM (inactive) | 1.83 µM (inactive) | 2.27 µM (inactive) | 18.7 µM (inactive) | 1.6 µM (inactive) | 2.36 µM (inactive) | 9.89 µM (inactive) | 2.55 µM (inactive) | 1.23 µM (inactive) | 1.44 µM (inactive) | 2.53 µM (inactive) | 1.67 µM (inactive) | 5.25 µM (inactive) | 11.1 µM (inactive) | 1.59 µM (inactive) | 1.65 µM (inactive) | 2.38 µM (inactive) | 1.62 µM (inactive) | 3.24 µM (inactive) | 2.51 µM (inactive)
3 | N#Cc1c(N2CCN(c3ccc([N+](=O)[O-])cc3)CC2)[n+]([O-])c2ccc(Cl)cc2[n+]1[O-] | 2.81 µM (inactive) | 1.56 µM (inactive) | 1.18 µM (inactive) | 1.78 µM (inactive) | 0.836 µM (active) | 0.716 µM (active) | 2.2 µM (inactive) | 0.973 µM (active) | 0.231 µM (active) | 1.43 µM (inactive) | 2.11 µM (inactive) | 0.718 µM (active) | 2.36 µM (inactive) | 1.86 µM (inactive) | 0.789 µM (active) | 0.705 µM (active) | 0.161 µM (active) | 1.79 µM (inactive) | 1.71 µM (inactive) | 0.264 µM (active)
4 | CSc1ccc(/C=C2\N=C(c3ccccc3)N(c3nc4cc(Cl)c(F)cc4s3)C2=O)cc1 | 25.1 µM (inactive) | 58.3 µM (inactive) | 24.7 µM (inactive) | 64.3 µM (inactive) | 35.2 µM (inactive) | 26.1 µM (inactive) | 18.2 µM (inactive) | 39.9 µM (inactive) | 71.3 µM (inactive) | 55.8 µM (inactive) | 21.7 µM (inactive) | 63.1 µM (inactive) | 25 µM (inactive) | 32.3 µM (inactive) | 36.4 µM (inactive) | 26.1 µM (inactive) | 42 µM (inactive) | 19.1 µM (inactive) | 28.3 µM (inactive) | 32.8 µM (inactive)
5 | COc1cccc2c1C(=O)c1c(O)c3c(c(O)c1C2=O)C[C@@](O)(/C(C)=N/NC(=O)c1ccc(Cl)c(Cl)c1)C[C@@H]3OC1CC(N)C(O)C(C)O1 (stereo partly drawn) | 0.0792 µM (active) | 0.148 µM (active) | 0.0668 µM (active) | 0.44 µM (active) | 0.411 µM (active) | 0.372 µM (active) | 0.718 µM (active) | 0.0693 µM (active) | 0.197 µM (active) | 1.08 µM (active) | 0.528 µM (active) | 0.191 µM (active) | 0.0448 µM (active) | 0.296 µM (active) | 0.0364 µM (active) | 0.0269 µM (active) | 0.424 µM (active) | 1.15 µM (inactive) | 0.904 µM (active) | 0.505 µM (active)
6 | CC12OOC(c3ccccc31)c1c2ccc2ccccc12 (stereo not drawn) | 16.7 µM (inactive) | 9.23 µM (inactive) | 0.8 µM (active) | 20 µM (inactive) | 5.66 µM (inactive) | 1.82 µM (inactive) | 12.1 µM (inactive) | 13.2 µM (inactive) | 1.65 µM (inactive) | 9.55 µM (inactive) | 18.9 µM (inactive) | 8.53 µM (inactive) | 8.47 µM (inactive) | 11.2 µM (inactive) | 1.73 µM (inactive) | 2.45 µM (inactive) | 2.44 µM (inactive) | 1.18 µM (inactive) | 5.45 µM (inactive) | 10.4 µM (inactive)
7 | COC(=O)[C@@H]1[C@H]2CC[C@]3(C)[C@@H](OC(C)=O)CC[C@H]3[C@@H]2CC[C@H]1C1(C)SCCS1 | 50.5 µM (inactive) | 21.5 µM (inactive) | 25.1 µM (inactive) | 53.6 µM (inactive) | 26.8 µM (inactive) | 20.4 µM (inactive) | 19 µM (inactive) | 27 µM (inactive) | 36.1 µM (inactive) | 38.6 µM (inactive) | 23.7 µM (inactive) | 22.7 µM (inactive) | 37.2 µM (inactive) | 44.4 µM (inactive) | 37.2 µM (inactive) | 19.3 µM (inactive) | 18.7 µM (inactive) | 20.5 µM (inactive) | 25.1 µM (inactive) | 18.4 µM (inactive)
8 | CNC(=O)OCC1=C(COC(=O)NC)C(C)N(c2ccccc2)C1 (stereo not drawn) | 58.5 µM (inactive) | 30.1 µM (inactive) | 37.8 µM (inactive) | 42.4 µM (inactive) | 40.5 µM (inactive) | 26.7 µM (inactive) | 22.6 µM (inactive) | 20.8 µM (inactive) | 26.7 µM (inactive) | 22.9 µM (inactive) | 43.4 µM (inactive) | 47.2 µM (inactive) | 39.4 µM (inactive) | 37.7 µM (inactive) | 33.7 µM (inactive) | 24.6 µM (inactive) | 28.8 µM (inactive) | 28.4 µM (inactive) | 46.1 µM (inactive) | 50.9 µM (inactive)
9 | CC1SCCc2nc3ccccc3n21 (stereo not drawn) | > 100 µM (inactive) | > 100 µM (inactive) | > 100 µM (inactive) | > 100 µM (inactive) | > 100 µM (inactive) | > 100 µM (inactive) | > 100 µM (inactive) | > 100 µM (inactive) | > 100 µM (inactive) | > 100 µM (inactive) | > 100 µM (inactive) | > 100 µM (inactive) | > 100 µM (inactive) | > 100 µM (inactive) | – | > 100 µM (inactive) | > 100 µM (inactive) | > 100 µM (inactive) | > 100 µM (inactive) | > 100 µM (inactive)
10 | Cc1cc(O)c(O)c(Oc2cc(C)cc(O)c2O)c1 | 35.9 µM (inactive) | 14.3 µM (inactive) | 13.4 µM (inactive) | 36.8 µM (inactive) | 21.9 µM (inactive) | 26.7 µM (inactive) | 21.5 µM (inactive) | 13.1 µM (inactive) | 15.1 µM (inactive) | 18.5 µM (inactive) | 48.4 µM (inactive) | 18.2 µM (inactive) | 75.7 µM (inactive) | 17.8 µM (inactive) | 11.6 µM (inactive) | 31.1 µM (inactive) | 16.6 µM (inactive) | 24.5 µM (inactive) | 16 µM (inactive) | 20.1 µM (inactive)
11 | O=C1C=CC(O)C2C1CC13SSC4(CC5C(=O)C=CC(O)C5N4C1=O)C(=O)N23 (stereo not drawn) | 1.36 µM (inactive) | 0.157 µM (active) | 0.476 µM (active) | 2.2 µM (inactive) | 0.138 µM (active) | 0.499 µM (active) | 0.796 µM (active) | 1.21 µM (inactive) | 0.0358 µM (active) | 0.272 µM (active) | 0.5 µM (active) | 0.0396 µM (active) | 1.11 µM (active) | 0.847 µM (active) | 0.0745 µM (active) | < 0.01 µM (active) | 0.0966 µM (active) | 0.483 µM (active) | 0.726 µM (active) | 1.63 µM (inactive)
12 | O=C(O)c1ccc(Nc2ccnc3cc(Cl)ccc23)cc1O | > 100 µM (inactive) | > 100 µM (inactive) | > 100 µM (inactive) | > 100 µM (inactive) | > 100 µM (inactive) | > 100 µM (inactive) | > 100 µM (inactive) | > 100 µM (inactive) | > 100 µM (inactive) | > 100 µM (inactive) | > 100 µM (inactive) | > 100 µM (inactive) | > 100 µM (inactive) | > 100 µM (inactive) | > 100 µM (inactive) | > 100 µM (inactive) | > 100 µM (inactive) | > 100 µM (inactive) | > 100 µM (inactive) | > 100 µM (inactive)
13 | Nc1nc(NCC2(CO)CC2)cc(=O)[nH]1 | > 100 µM (inactive) | > 100 µM (inactive) | > 100 µM (inactive) | > 100 µM (inactive) | > 100 µM (inactive) | > 100 µM (inactive) | > 100 µM (inactive) | > 100 µM (inactive) | > 100 µM (inactive) | > 100 µM (inactive) | > 100 µM (inactive) | > 100 µM (inactive) | > 100 µM (inactive) | > 100 µM (inactive) | > 100 µM (inactive) | > 100 µM (inactive) | > 100 µM (inactive) | > 100 µM (inactive) | > 100 µM (inactive) | > 100 µM (inactive)
14 | CC(C)(C)OC(=O)[N+](=N)C(=O)C1CCC(=O)N1C(=O)OCc1ccccc1 (stereo not drawn) | > 100 µM (inactive) | > 100 µM (inactive) | > 100 µM (inactive) | > 100 µM (inactive) | > 100 µM (inactive) | > 100 µM (inactive) | – | > 100 µM (inactive) | > 100 µM (inactive) | > 100 µM (inactive) | > 100 µM (inactive) | > 100 µM (inactive) | > 100 µM (inactive) | > 100 µM (inactive) | > 100 µM (inactive) | > 100 µM (inactive) | > 100 µM (inactive) | > 100 µM (inactive) | > 100 µM (inactive) | > 100 µM (inactive)
